The source of these data is PubChem BioAssay AID720577 (The Scripps Research Institute Molecular Screening Center, 2013).

This assay deals with CCHF virus vOTU protease domain (L polyprotein). Nature of the assay: Crimean Congo hemorrhagic fever virus vOTU protease, Pep AMC substrate, counterscreen, confirmatory (AID 720577). The settings on record: purified vOTU, fluorescence. Background: The purpose of a counterscreen is to sort out artefacts and off-target activity.

By IC50 is commonly meant the concentration that inhibits the measured activity by half.

Activity calls are given as the source filed them. The rule behind the calls is not given here.

With `CCOC(=O)c1c(C)[nH]c2c1-c1ccccc1C(=O)C2=O`, the IC50 was 0.662 µM.
The result for `O=C(/C=C/c1ccc(O)cc1)c1ccc(NC2=C(N3CCCCC3)C(=O)c3ccccc3C2=O)cc1` reads “inactive”; that for `Cc1ccc(CNc2ccc(O)cc2)cc1`, “inactive”; that for `Cn1c2ccccc2c2cc(/C=N/NC(=O)c3cc(O)ccc3O)ccc21`, “inactive”.
As for `Cc1ccc(NC2=C(N3CCCCC3)C(=O)c3ccccc3C2=O)cc1`, the IC50 result was “inactive”.
In the case of `O=C(NCCCO)c1ccc2nc(-c3ccco3)c(-c3ccco3)nc2c1`, the IC50 result is “inactive”.
The value for `CCCCCCCCCCOC(=O)Cn1c(COc2ccc(Cl)cc2)[n+](C)c2ccccc21` was 6.42 µM; that for `Cc1cccc(NC(=O)c2sc3nc4c(c(-c5cccs5)c3c2N)CN(C)CC4)c1` was “inactive”.
The value for `CN(C)c1ccc(C=c2c3cc(O)ccc3n3c2cc(-c2ccccc2)[n+]3C)cc1` was 4.33 µM; that for `COc1ccc(Cc2nccc3cc(OC)c(OC)cc23)cc1OC` was “inactive”; that for `CC1(C)C=C2C(=NN(c3ccccc3)C(N)=C2C#N)CO1` was “inactive”.
The value for `CC(=O)c1ccc(NC2=C(N3CCOCC3)C(=O)c3ccccc3C2=O)cc1` was “inactive”.
With `O=C(O)CSc1cc(NS(=O)(=O)c2cccc([N+](=O)[O-])c2)c2ccccc2c1O`, the IC50 was 7.61 µM.
The result for `CN(C1=C(NC(=O)c2ccccc2)C(=O)c2ccccc2C1=O)C1CCS(=O)(=O)C1` (configuration not stated) reads 9.59 µM; that for `S=C(Nc1ccc(Cl)cc1)Nc1cccc2cnccc12`, 8.74 µM.
With `COc1ccc(S(=O)(=O)/N=C2\C=C(Nc3ccc(O)cc3)C(=O)c3ccccc32)cc1`, the IC50 is 1.33 µM.
The result for `COc1ccc(-n2c3nc4ccccc4nc3c3c(=N)oc(C)nc32)cc1` reads > 115 µM (inactive); that for `CCOC(=O)C1CCN(C(=O)c2c(C)oc3c2C(=O)c2ccccc2C3=O)CC1`, “inactive”; that for `O=C1C(SCCO)=C(SCCO)C(=O)c2ccccc21`, 7.34 µM.
The value for `Cc1c(C=O)c(Cl)n(C)c(=O)c1C#N` was “inactive”; that for `CC(C)=CCC1=C(OCC(=O)O)C(=O)c2ccccc2C1=O` was “inactive”.
The value for `Cc1ccc2c(c1C)-c1c(ccc(C)c1C)C(=O)C2=O` was “inactive”.
Consider `NC1=C(Br)C(=O)c2ncccc2C1=O`, for which the IC50 is 1.1 µM.
The value for `CCOC(=O)c1cc2c(ccn2C)n1Cc1ccccc1C` was “inactive”; that for `CC(=O)N(C1=C(N)C(=O)c2ccccc2C1=O)c1ccccc1` was “inactive”.
Regarding `O=C1OC(Nc2cc(Br)cc3cccnc23)c2ccccc21` (configuration not stated), the IC50 was 5.44 µM.
As for `O=C1C=C(O)c2[nH]c(=O)ccc2C1=O`, the IC50 result was “inactive”.
The value for `CCN(CC)CCCC(C)n1c2nc(=O)[nH]c(=O)c-2nc2cc(Cl)ccc21` (configuration not stated) was 5.44 µM; that for `COc1cc(NCCCC(C)N)c2ncccc2c1` (configuration not stated) was 4.6 µM; that for `O=c1[nH]c(Nc2ccccc2)cc2cc(Br)ccc12` was 1.45 µM.
The result for `CC1CCCC(NC(=O)COC(=O)c2ccc([N+](=O)[O-])s2)C1C` (configuration not stated) reads “inactive”; that for `O=[N+]([O-])c1cc(O)c2ncccc2c1`, “inactive”; that for `CC(=O)N(/N=C1\Sc2ccccc2C1=O)c1ccccc1C`, “inactive”.
The value for `N#CC1=C(S)N(c2ccccc2)C(c2ccc(-c3ccc(Cl)c(Cl)c3)o2)NC1=O` (configuration not stated) was > 115 µM (inactive).
Regarding `CC(=O)Nc1ccc(S(=O)(=O)NC2=C(N3CCN(c4ccc(F)cc4)CC3)C(=O)c3ccccc3C2=O)cc1`, the IC50 result was “inactive”.
The value for `CCOC(=O)N=Nc1c2ccccc2c2nc3no[nH]c3nc12` was 7.75 µM.
The value for `CCC(CNc1cc(OC)cc2cccnc12)NC1CCCCC1` (configuration not stated) was 6.96 µM; that for `CC(=O)[C@H]1[C@@H]2C(=O)N(c3cccc(Cl)c3)C(=O)[C@@H]2[C@H]2c3ccccc3C=CN21` was “inactive”.
As to `O=C(NC(=S)Nc1ccccc1N1CCCC1)c1ccccc1Br`, the IC50 was > 115 µM (inactive).
As to `COc1cc2c(cc1OC)-c1c(OC)c(OC)cc3c1[C@H](C2)N(C)CC3`, the IC50 was > 12.7 µM (inactive).
With `COCCN1C=C2C(=O)C(C)(OC(=O)C3CCCC3)C(=O)C(c3ccccc3)=C2C=C1CCCC(=O)OC` (configuration not stated), the IC50 entry was “inactive”.
The result for `O=C(c1ccccc1)c1coc2c1C(=O)c1ccccc1C2=O` reads “inactive”; that for `O=C1C=C(Nc2ccccc2)c2ccccc2C1=O`, “inactive”.
The result for `O=C(OCc1nnc(-c2ccccc2)o1)c1ccc([N+](=O)[O-])s1` reads “inactive”; that for `CN1/C(=C\C=C2C(=O)NC(=O)NC2=O)C(C)(C)c2ccccc21`, “inactive”.
The result for `Cc1coc2c(O)cc3c(c12)OC1(N2CCCCC2)C(=O)NCCCC31` (configuration not stated) reads “inactive”; that for `O=S(=O)(Nc1cc(Sc2ncn[nH]2)c(O)c2ccccc12)c1ccccc1`, 2.16 µM; that for `Cc1nc2c(o1)C(=O)c1ccccc1C2=Nc1ccccc1`, “inactive”.
As for `Nc1scc2c(C(=O)N/N=C/c3ccc(Cl)cc3)nn(-c3ccccc3)c(=O)c12`, the IC50 result is “inactive”.
The result for `CCCCn1c(NS(=O)(=O)c2ccccc2)c(S(=O)(=O)c2ccc(C)cc2)c2nc3ccccc3nc21` reads > 115 µM (inactive); that for `O=C1C(Nc2cccc(O)c2)=C(N2CCCCC2)C(=O)c2ccccc21`, “inactive”; that for `Cc1ccc(S(=O)(=O)/N=C2\C=C(Nc3cccc(C(=O)O)c3)C(=O)c3ccccc32)cc1`, 1.99 µM.
The result for `CCCCn1c(NS(=O)(=O)c2ccccc2)c(C(=O)OCC)c2nc3ccccc3nc21` reads > 115 µM (inactive); that for `CCCNC1=C(N(C(C)=O)c2cccc(F)c2)C(=O)c2ccccc2C1=O`, > 12.7 µM (inactive).
The value for `CC(=O)N(C1=C(Cl)C(=O)c2ccccc2C1=O)C1CCCCC1` was “inactive”; that for `CC[C@H](CO)Oc1cc(NCc2cccc(N)c2)c2ncn(C(C)C)c2c1` was “inactive”; that for `Cc1ccc(NC2=C/C(=N/S(=O)(=O)c3cccs3)c3ccccc3C2=O)cc1` was 1.79 µM.
`O=C(O)c1cc(O)c2c(c1)[C@H]([C@H]1c3cc(C(=O)O)cc(O)c3C(=O)c3c(O[C@@H]4O[C@H](CO)[C@@H](O)[C@H](O)[C@H]4O)cccc31)c1cccc(OC3O[C@H](CO)[C@@H](O)[C@H](O)[C@H]3O)c1C2=O` (some centres not stated): the IC50 was 7.68 µM.
The result for `O=C1NNC(c2ccccc2)=N/C1=C\c1ccccc1Cl` reads “inactive”; that for `Cc1cc(C)c(S(=O)(=O)/N=C2\C=C(Nc3ccc(C(=O)O)cc3)C(=O)c3ccccc32)c(C)c1`, 4.54 µM; that for `O=C(COC(=O)c1ccc([N+](=O)[O-])s1)Nc1ccc(F)cc1`, “inactive”.
The value for `O=C(/C=C/c1ccc([N+](=O)[O-])s1)N1CCCCC1` was > 115 µM (inactive).
The result for `CC1OC2CC(=O)OC2C2=C1C(=O)c1c(O)cccc1C2=O` (configuration not stated) reads “inactive”; that for `Cc1ccccc1-c1cc2c(nn1)-c1ccccc1C2=O`, 2.23 µM.
Regarding `Cn1nc(-c2ccccn2)nc2c(=O)n(C)c(=O)nc1-2`, the IC50 is 1.16 µM.
The result for `CC(=O)[C@@H]1[C@@H]2C(=O)N(c3ccc(F)c(Cl)c3)C(=O)[C@@H]2C2c3ccccc3C=CN21` (some centres not stated) reads “inactive”; that for `CN1CCC/C1=C/C=C1\SC(=S)NC1=O`, “inactive”.
The value for `COc1cc(Br)c(C(=O)c2nccc3cc(OC)c(OC)cc23)cc1OC` was 1.13 µM; that for `O=C1C=C(Nc2ccccc2C(=O)O)c2ccccc2C1=O` was 7.39 µM.
The value for `COc1cc(NC(=O)COC(=O)c2ccc([N+](=O)[O-])s2)cc(OC)c1OC` was “inactive”.
In the case of `O=C(O)c1ccc(S(=O)(=O)/N=C2\C=C(Nc3ccccc3F)C(=O)c3ccccc32)cc1`, the IC50 is 1.24 µM.
Turning to `CCOCCCNC1=C(Cl)C(=O)c2ccccc2C1=O`, the IC50 result is “inactive”.
The value for `CNc1ccc2nc3ccccc3[n+](C)c2c1` was “inactive”; that for `O=C(O)c1cccc(NC2=C(N3CCOCC3)C(=O)c3ccccc3C2=O)c1` was “inactive”.
The value for `NC1=CC(=O)C(=O)c2cccnc21` was 4.94 µM; that for `Cc1ccccc1NC1=C/C(=N\S(=O)(=O)c2ccc(C(=O)O)cc2)c2ccccc2C1=O` was 0.536 µM.
The value for `O=[N+]([O-])c1c(Nc2ccccn2)cc(Cl)c2nonc12` was “inactive”; that for `O=C1C=C(N2CC2)c2ccccc2C1=O` was 8.1 µM; that for `CN(C)CCCNc1cc(O)c2ncccc2c1` was “inactive”.
In the case of `CCOC(=O)c1c2c(n(Cc3ccccc3)c1C)C(=O)C(=O)c1ccccc1-2`, the IC50 is 1.49 µM.
With `COc1ccc(N2C(=O)[C@@H]3[C@H](C2=O)[C@H]2c4ccccc4C=CN2[C@@H]3C(C)=O)cc1`, the IC50 entry is “inactive”.
The result for `O=C1NC(c2ccc(-c3ccccc3[N+](=O)[O-])o2)C(C(=O)c2ccc(Cl)cc2)C(O)(C(F)(F)F)N1` (configuration not stated) reads “inactive”; that for `CCOC(=O)C1=C(COC(=O)c2ccc([N+](=O)[O-])s2)NC(=O)NC1C` (configuration not stated), “inactive”; that for `O=C1C=C(N2CCOCC2)c2ccccc2C1=O`, “inactive”.
The result for `COc1ccccc1Nc1cc2cc(Br)ccc2c(=O)[nH]1` reads 1.36 µM; that for `O=C1C=C(N2CCCCC2)c2ccccc2C1=O`, “inactive”.
Take `CCOc1ccc(NC(=S)Nc2ccc3nsnc3c2)cc1`: the IC50 result was “inactive”.
Consider `Oc1c(N=Nc2nn[nH]n2)ccc2ccccc12`, for which the IC50 result was “inactive”.
The result for `CCC(C)n1c(NC(=O)c2ccccc2)c(C#N)c2nc3ccccc3nc21` (configuration not stated) reads > 12.7 µM (inactive).
The value for `CC(NC1=CC(=O)c2cccnc2C1=O)C(O)c1ccccc1` (configuration not stated) was 4.33 µM.
The value for `O=C1Nc2ccc([N+](=O)[O-])cc2C1=Nc1cccc(CO)c1` was “inactive”; that for `CCCCCCCCCCCCN1[C@@H](CC(=O)O)c2cc(F)ccc2S1(=O)=O` was “inactive”.
